In US20240132431A1, “METHOD FOR ALKYLATING ACIDIC FUNCTIONAL GROUP” (Chugai Seiyaku Kabushiki Kaisha, priority 2021, published 2024):
Blank lines part the entries; values can stand above or below the molecule they belong to.

Molecular target: T1, Bcl-2 protein (Recombinant Human Bcl-2 Protein) (Homo sapiens, UniProt P10415)
T1 construct: purchased Novus NBP2-34889
Assay: Binding evaluation of mixture library compounds to Bcl-2 using AS-MS (affinity selection mass spectrometry)
Conditions: for ASMS ratio (%) n = 1: replicate n = 1; for ASMS ratio (%) n = 1 / ASMS ratio (%) n = 2: ASMS Ratio(%)=(A−C)/B×100; for ASMS ratio (%) n = 2: replicate n = 2
Procedure, shortened: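 Pooled library of ~1200 compounds ([…] each, final) incubated with recombinant human Bcl-2 (20 μM final) in Tris-HCl pH 7.4, NaCl, Tween-20, DTT buffer, dark, 23° C., 1 h. Bound fraction recovered by SEC spin column, organic extraction, reversed-phase LC/MS. ASMS Ratio (%) = (A−C)/B×100 versus protein-free standard and SEC blank.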

[1] = AS-MS on the mixture of 1200 library compounds
[2] = AS-MS, mixture of 1200 compounds, Bcl-2

T1 sequence (P10415 whole entry): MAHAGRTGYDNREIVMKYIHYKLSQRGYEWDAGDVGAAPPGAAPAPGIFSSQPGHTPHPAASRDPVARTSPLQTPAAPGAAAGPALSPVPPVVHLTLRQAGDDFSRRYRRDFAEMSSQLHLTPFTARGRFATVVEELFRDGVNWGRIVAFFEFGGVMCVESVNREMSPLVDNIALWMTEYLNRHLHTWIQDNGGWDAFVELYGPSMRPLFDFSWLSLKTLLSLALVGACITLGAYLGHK

ASMS ratio (%) (n = 1): −0.9%
ASMS ratio (%) (n = 2): −1.5%
Molecule: CCOc1cncc(-c2cc(CN3CCN(c4ccc(C(=O)NS(C)(=O)=O)nn4)CC3)cc(OC(C)C)c2)c1 [B2I084-01]

ASMS ratio (%) (n = 1): 0.0%
ASMS ratio (%) (n = 2): 0.0%
Molecule: CCOc1cccc(C#Cc2ccccc2CN2CCN(c3ccc(C(=O)NS(=O)(=O)C(C)(C)C)cc3)CC2)c1 [B2L069-01, N-tert-Butylsulfonyl-4-[4-[[2-[2-(3-ethoxyphenyl)ethynyl]phenyl]methyl]piperazin-1-yl]benzamide]

ASMS ratio (%) n = 1 (AS-MS, mixture library, Bcl-2): −1.3%
ASMS ratio (%) n = 2 (AS-MS, mixture library, Bcl-2): 0.1%
Molecule: CCOc1cncc(-c2csc(CN3CCN(c4ccc(C(=O)N(CC)CC)nn4)CC3)c2)c1 [B4J094-01]

ASMS ratio (%) n = 1 [1]: 1.9%
ASMS ratio (%) n = 2 [1]: 4.2%
Molecule: CCOc1cccc(-c2ccccc2CCC(=O)N2CCN(c3ccc(C(=O)Nc4ccc(OC)cc4)cc3)CC2)c1 [B1O033-01, 4-[4-[3-[2-(3-Ethoxyphenyl)phenyl]propanoyl]piperazin-1-yl]-N-(4-methoxyphenyl)benzamide]

ASMS ratio (%) n = 1 [1]: 12.3%
ASMS ratio (%) n = 2 [1]: −12.4%
Molecule: CCOc1cncc(-c2cnn(-c3cc(C(=O)N4CCN(c5ccc(C(=O)N(C)CC67CC8CC(CC(C8)C6)C7)cc5)CC4)cc(C(F)(F)F)c3)c2)c1 [B3A044-01, N-(1-Adamantylmethyl)-4-[4-[3-[4-(5-ethoxypyridin-3-yl)pyrazol-1-yl]-5-(trifluoromethyl)benzoyl]piperazin-1-yl]-N-methylbenzamide]

ASMS ratio (%) n = 1 [1]: 2.2%
ASMS ratio (%) n = 2 [1]: −0.5%
Molecule: CCOc1cccc(-c2cc(CN3CCN(c4ccc(C(=O)Nc5ccc(OC)cc5)nn4)CC3)cc(C(F)(F)F)c2)c1 [B1O087-01]

ASMS ratio (%) n = 1 (AS-MS, mixture library, Bcl-2): 0.0%
ASMS ratio (%) n = 2 (AS-MS, mixture library, Bcl-2): 0.0%
Molecule: CCOc1cncc(C#Cc2ccccc2C(=O)N2CCN(c3ccc(C(=O)NS(C)(=O)=O)cc3)CC2)c1 [B2I030-01, 4-[4-[2-[2-(5-Ethoxypyridin-3-yl)ethynyl]benzoyl]piperazin-1-yl]-N-methylsulfonylbenzamide]

ASMS ratio (%) (n = 1): 0.0%
ASMS ratio (%) (n = 2): 0.0%
Molecule: CCOc1cncc(-c2ccc(CN3CCN(c4ccc(C(=O)NS(=O)(=O)CCC(F)(F)F)nn4)CC3)cc2F)c1 [B2N078-01, 6-[4-[[4-(5-Ethoxypyridin-3-yl)-3-fluorophenyl]methyl]piperazin-1-yl]-N-(3,3,3-trifluoropropylsulfonyl)pyridazine-3-carboxamide]

ASMS ratio (%) n = 1 [1]: 6.2%
ASMS ratio (%) n = 2 [1]: −2.4%
Molecule: CCOc1cccc(C#Cc2ccccc2CN2CCN(c3ccc(C(=O)Nc4ccc(OC)cc4)cc3)CC2)c1 [B1O069-01, 4-[4-[[2-[2-(3-Ethoxyphenyl)ethynyl]phenyl]methyl]piperazin-1-yl]-N-(4-methoxyphenyl)benzamide]

ASMS ratio (%) n = 1 [1]: −2.6%
ASMS ratio (%) n = 2 [1]: 25.2%
Molecule: CCOc1cccc(-c2ccc(C(C)N3CCN(c4ccc(C(=O)N(C)CC56CC7CC(CC(C7)C5)C6)cc4)CC3)c(F)c2)c1 (centres unmarked) [B3A099-01, N-(1-Adamantylmethyl)-4-[4-[1-[4-(3-ethoxyphenyl)-2-fluorophenyl]ethyl]piperazin-1-yl]-N-methylbenzamide]

ASMS ratio (%) (n = 1): 0.0%
ASMS ratio (%) (n = 2): 0.0%
Molecule: CCOc1cncc(-c2ccc(C(C)N3CCN(c4ccc(C(=O)NS(=O)(=O)C(C)(C)C)cc4)CC3)c(F)c2)c1 (centres unmarked) [B2L100-01, N-tert-Butylsulfonyl-4-[4-[1-[4-(5-ethoxypyridin-3-yl)-2-fluorophenyl]ethyl]piperazin-1-yl]benzamide]

Molecule: 4-[4-[3-[2-(5-Ethoxypyridin-3-yl)phenyl]propanoyl]piperazin-1-yl]-N-propylbenzamide [B1M078-01]
ASMS ratio (%) n = 1 [2]: 0.0%
ASMS ratio (%) n = 2 [2]: 0.0%

ASMS ratio (%) n = 1 (AS-MS, mixture library, Bcl-2): 0.0%
ASMS ratio (%) n = 2 (AS-MS, mixture library, Bcl-2): −3.7%
Molecule: CCOc1cncc(-c2ccc(C(=O)N3CCN(c4ccc(C(=O)NS(=O)(=O)c5ccc(NCCSc6ccccc6)c([N+](=O)[O-])c5)cc4)CC3)cc2F)c1 [B2Q028-01, 4-[4-[4-(5-Ethoxypyridin-3-yl)-3-fluorobenzoyl]piperazin-1-yl]-N-[3-nitro-4-(2-phenylsulfanylethylamino)phenyl]sulfonylbenzamide]

ASMS ratio (%) n = 1 (AS-MS, mixture library, Bcl-2): 0.0%
ASMS ratio (%) n = 2 (AS-MS, mixture library, Bcl-2): 0.0%
Molecule: CCOc1cccc(-c2csc(C(=O)N3CCN(c4ccc(C(=O)NS(=O)(=O)CC56CC7CC(CC(C7)C5)C6)cc4)CC3)c2)c1 [B2A023-01, N-(1-Adamantylmethylsulfonyl)-4-[4-[4-(3-ethoxyphenyl)thiophene-2-carbonyl]piperazin-1-yl]benzamide]

ASMS ratio (%) n = 1 [2]: 0.1%
ASMS ratio (%) n = 2 [2]: −0.2%
Molecule: CCOc1cccc(-c2ccc(C(=O)N3CCN(c4ccc(C(=O)NCC(F)(F)F)nn4)CC3)cc2C)c1 [B1K003-01, 6-[4-[4-(3-Ethoxyphenyl)-3-methylbenzoyl]piperazin-1-yl]-N-(2,2,2-trifluoroethyl)pyridazine-3-carboxamide]

Molecule: CCOc1cncc(-c2cc(C(=O)N3CCN(c4ccc(C(=O)N(CC)CC)cc4)CC3)cc(C(F)(F)F)c2)c1 [B4J040-01, 4-[4-[3-(5-Ethoxypyridin-3-yl)-5-(trifluoromethyl)benzoyl]piperazin-1-yl]-N,N-diethylbenzamide]
ASMS ratio (%) n = 1 [1]: −0.5%
ASMS ratio (%) n = 2 [1]: −1.2%

ASMS ratio (%) (n = 1): 0.0%
ASMS ratio (%) (n = 2): 0.0%
Molecule: CCOc1cccc(-c2csc(CN3CCN(c4ccc(C(=O)NS(=O)(=O)CCC(F)(F)F)cc4)CC3)c2)c1 [B2N067-01, 4-[4-[[4-(3-Ethoxyphenyl)thiophen-2-yl]methyl]piperazin-1-yl]-N-(3,3,3-trifluoropropylsulfonyl)benzamide]

ASMS ratio (%) (n = 1): 0.0%
ASMS ratio (%) (n = 2): 0.0%
Molecule: CCOc1cncc(-c2csc(C(=O)N3CCN(c4ccc(C(=O)NS(=O)(=O)C(C)(C)C)cc4)CC3)c2)c1 [B2L024-01, N-tert-Butylsulfonyl-4-[4-[4-(5-ethoxypyridin-3-yl)thiophene-2-carbonyl]piperazin-1-yl]benzamide]

ASMS ratio (%) n = 1 (AS-MS, mixture library, Bcl-2): 7.2%
ASMS ratio (%) n = 2 (AS-MS, mixture library, Bcl-2): 12.7%
Molecule: CCOc1cccc(-c2cc(CN3CCN(c4ccc(C(=O)NS(=O)(=O)CC56CC7CC(CC(C7)C5)C6)nn4)CC3)cc(C(F)(F)F)c2)c1 [B2A087-01, N-(1-Adamantylmethylsulfonyl)-6-[4-[[3-(3-ethoxyphenyl)-5-(trifluoromethyl)phenyl]methyl]piperazin-1-yl]pyridazine-3-carboxamide]

ASMS ratio (%) (n = 1): 0.0%
ASMS ratio (%) (n = 2): 19.5%
Molecule: CCOc1cncc(C#Cc2ccccc2C(=O)N2CCN(c3ccc(C(=O)NS(=O)(=O)c4ccc(NCCSc5ccccc5)c(C(F)(F)F)c4)nn3)CC2)c1 [B2R008-01, 6-[4-[2-[2-(5-Ethoxypyridin-3-yl)ethynyl]benzoyl]piperazin-1-yl]-N-[4-(2-phenylsulfanylethylamino)-3-(trifluoromethyl)phenyl]sulfonylpyridazine-3-carboxamide]

ASMS ratio (%) n = 1 [2]: 3.0%
ASMS ratio (%) n = 2 [2]: 0.0%
Molecule: CCOc1cncc(C#Cc2ccccc2C(=O)N2CCN(c3ccc(C(=O)NCC45CC6CC(CC(C6)C4)C5)nn3)CC2)c1 [B1A008-01, N-(1-Adamantylmethyl)-6-[4-[2-[2-(5-ethoxypyridin-3-yl)ethynyl]benzoyl]piperazin-1-yl]pyridazine-3-carboxamide]

ASMS ratio (%) n = 1 (AS-MS, mixture library, Bcl-2): 0.0%
ASMS ratio (%) n = 2 (AS-MS, mixture library, Bcl-2): 0.0%
Molecule: CCOc1cccc(-c2cnn(-c3cc(C(=O)N4CCN(c5ccc(C(=O)NS(C)(=O)=O)nn5)CC4)cc(C(F)(F)F)c3)c2)c1 [B2I021-01, 6-[4-[3-[4-(3-Ethoxyphenyl)pyrazol-1-yl]-5-(trifluoromethyl)benzoyl]piperazin-1-yl]-N-methylsulfonylpyridazine-3-carboxamide]

ASMS ratio (%) n = 1 [1]: 4.8%
ASMS ratio (%) n = 2 [1]: 0.9%
Molecule: CCOc1cncc(-c2ccc(C(=O)N3CCN(c4ccc(C(=O)Nc5ccc(OC)cc5)cc4)CC3)c3ccccc23)c1 [B1O036-01, 4-[4-[4-(5-Ethoxypyridin-3-yl)naphthalene-1-carbonyl]piperazin-1-yl]-N-(4-methoxyphenyl)benzamide]

ASMS ratio (%) (n = 1): 22.4%
ASMS ratio (%) (n = 2): 5.3%
Molecule: CCOc1cncc(-c2cc(CN3CCN(c4ccc(C(=O)NS(=O)(=O)c5ccc(NCCSc6ccccc6)c(C(F)(F)F)c5)nn4)CC3)cc(OC(F)(F)F)c2)c1 [B2R090-01, 6-[4-[[3-(5-Ethoxypyridin-3-yl)-5-(trifluoromethoxy)phenyl]methyl]piperazin-1-yl]-N-[4-(2-phenylsulfanylethylamino)-3-(trifluoromethyl)phenyl]sulfonylpyridazine-3-carboxamide]

ASMS ratio (%) n = 1 [1]: −1.5%
ASMS ratio (%) n = 2 [1]: −4.8%
Molecule: CCOc1cccc(-c2ccc(C(=O)N3CCN(c4ccc(C(=O)N(C)CC56CC7CC(CC(C7)C5)C6)nn4)CC3)cc2F)c1 [B3A005-01, N-(1-Adamantylmethyl)-6-[4-[4-(3-ethoxyphenyl)-3-fluorobenzoyl]piperazin-1-yl]-N-methylpyridazine-3-carboxamide]

ASMS ratio (%) (n = 2): 0.0%
Molecule: CCOc1cccc(-c2csc(C(=O)N3CCN(c4ccc(C(=O)NS(=O)(=O)CCC(F)(F)F)nn4)CC3)c2)c1 [B2N001-01, 6-[4-[4-(3-Ethoxyphenyl)thiophene-2-carbonyl]piperazin-1-yl]-N-(3,3,3-trifluoropropylsulfonyl)pyridazine-3-carboxamide]

ASMS ratio (%) n = 1 [2]: −6.2%
ASMS ratio (%) n = 2 [2]: 2.6%
Molecule: CCOc1cncc(-c2ccc(C(=O)N3CCN(c4ccc(C(=O)NCC56CC7CC(CC(C7)C5)C6)nn4)CC3)cc2C)c1 [B1A004-01, N-(1-Adamantylmethyl)-6-[4-[4-(5-ethoxypyridin-3-yl)-3-methylbenzoyl]piperazin-1-yl]pyridazine-3-carboxamide]
